# According to PMC7598997, “Synthesis and evaluation of anticancer activities of 2- or 4-substituted 3-(N-benzyltriazolylmethyl)-13α-oestrone derivatives” (Journal of Enzyme Inhibition and Medicinal Chemistry, 2020):
# Key:
# tubulin [1] = details: cited from earlier work
# HeLa cells [2] = system: HeLa cells; set-up: method as in PMID 27363663; details: HeLa cells ref 15; cited from earlier work
# HeLa cells [3] = system: HeLa cells; set-up: method as in PMID 27363663; details: HeLa cells ref 15; cited from earlier work; remark: listed apart in the source
# MCF-7 cell line = system: MCF-7 cell line; set-up: method as in PMID 27263437; details: described earlier ref 16; cited from earlier work
# A2780 cell line = system: A2780 cell line; set-up: method as in PMID 27263437; details: described earlier ref 16; cited from earlier work
# tested cell lines = system: tested cell lines; set-up: method as in PMID 27263437; details: described earlier ref 16; cited from earlier work
# [4] = biological target: 17β-hydroxysteroid dehydrogenase 1, 17β-HSD1; details: read-out: 17β-HSD1 inhibition IC50; cited from earlier work
# steroid sulfatase, STS = system: steroid sulfatase, STS; set-up: method as in PMID 30230387; details: cited from earlier work
# OATP2B1 = system: OATP2B1; set-up: method as in PMID 30498534; details: read-out: OATP2B1 inhibition IC50; cited from earlier work
# tubulin [5] = assay: cell-free in vitro tubulin polymerisation assay; type: biochemical; details: vs untreated control
# Protocol: The effect of brominated triazole (12a) on tubulin polymerisation was tested with the HTS-Tubulin Polymerisation Assay Biochem Kit (Bio-Kasztel Ltd., Budapest, Hungary) according to the manufacturer’s recommendations. Briefly, 10 µl of a 0.125 or 0.25 mM solution of the test compound (12a) was placed on a prewarmed (37 °C), UV-transparent microplate. About 10 µl 10 µM paclitaxel and 10 µl General Tubulin Buffer were used as positive and negative control, respectively. 100 µl 3.0 mg/ml tubulin in 80 mM PIPES pH 6.9, 2 mM MgCl2, 0.5 mM EGTA, 1 mM GTP was added to each sample, and the microplate was immediately placed into a prewarmed (37 °C) UV-spectrophotometer (SpectoStarNano, BMG Labtech, Ortenberg, Germany) to start the recording reaction. A 60-min kinetic measurement protocol was applied to determine the absorbance of the reaction solution per minute at 340 nm. For the evaluation of the experimental data, the maximum reaction rate (Vmax: Δabsorbance/min) was calculated. Moving averages of absorbances determined at three consecutive timepoints were calculated and the highest difference between two succeeding moving averages was taken as the Vmax of the tested compound in the tubulin polymerisation reaction. Each sample was prepared in two parallels and the measurements were repeated twice. For statistical evaluation, Vmax data were analysed by the one-way ANOVA test with the Newmann–Keuls post-test by using Prism 4.01 software (GraphPad Software, San Diego, CA).
# MCF-7 cells = assay: MTT antiproliferative assay, MCF-7; type: cell-based, human; details: Homo sapiens, MCF7, MTT
# Protocol: (§1) The antiproliferative properties of the newly synthesised triazoles (11a,b–15a,b) were determined on a panel of human adherent cancer cell lines of gynaecological origin. MCF-7 and MDA-MB-231 were isolated from breast cancers differing in biochemical background, while A2780 cells were isolated from ovarian cancer. The cancer selectivity of compound 12a was tested on the non-cancerous mouse embryo fibroblast cell line NIH/3T3. All cell lines were purchased from European Collection of Cell Cultures (ECCAC, Salisbury, UK). Cells were cultivated in minimal essential medium supplemented with 10% foetal bovine serum, 1% non-essential amino acids and an antibiotic–antimycotic mixture. All media and supplements were obtained from Lonza Group Ltd., Basel, Switzerland. Near-confluent cancer cells were seeded onto a 96-well microplate (5000 cells/well) and, after overnight standing, 200 µL new medium, containing the tested compounds at 10 and 30 µM, was added. After incubation for 72 h at 37 °C in humidified air containing 5% CO2, the living cells were assayed by the addition of 20 µL of 5 mg/ml 3-(4,5-dimethylthiazol-2-yl)-2,5-diphenyltetrazolium bromide (MTT) solution. MTT was converted by intact mitochondrial reductase and precipitated as purple crystals during a 4-h contact period. The medium was next removed and the precipitated formazan crystals were dissolved in 100 µL of DMSO during a 60-min period of shaking at 37 ^оC.
# (§2) Finally, the reduced MTT was assayed at 545 nm, using a microplate reader utilising wells with untreated cells serving as control. […] All in vitro experiments were carried out on two microplates with at least five parallel wells. Stock solutions of the tested substances (10 mM) were prepared in DMSO. […] Cisplatin (Ebewe Pharma GmbH, Unterach, Austria) was used as positive control.
# A2780 cells = assay: MTT antiproliferative assay, A2780; type: cell-based, human; details: Homo sapiens, MTT
# Protocol: as §1, §2
# [6] = system: non-cancerous mouse embryo fibroblast cell line NIH/3T3; assay: MTT assay for cancer selectivity, NIH/3T3; type: cell-based
# Protocol: as §1, §2
# MDA-MB-231 cells = assay: MTT antiproliferative assay, MDA-MB-231; type: cell-based, human; details: Homo sapiens, MTT
# Protocol: as §1, §2
compound,measurement,setting,value
COc1cc2c(cc1O)CC[C@@H]1[C@@H]2CC[C@]2(C)[C@@H](O)CC[C@@H]12 [2-methoxyestradiol],effect on tubulin polymerisation,tubulin [1],inhibit tubulin polymerisation
CCC[C@H]1[C@@H]2CCc3cc(OCc4cn(Cc5ccccc5)nn4)ccc3[C@H]2CC[C@]1(C)CO [Compound 3],cell cycle effect,HeLa cells [2],cell cycle arrest at G2/M
same,maximum rate of microtubule formation,tubulin [1],significantly increases the maximum rate of microtubule formation
same,migration and invasion,HeLa cells [3],inhibits the migration and invasion
"C[C@@]12CC[C@@H]3c4ccc(OCc5cn(Cc6ccccc6)nn5)cc4CC[C@H]3[C@@H]1CCC2=O [Compound 4a, 3-[{1-benzyl-1H-1,2,3-triazol-4-yl}methoxy]-13α-estra-1,3,5(10)-trien-17-one]",IC50,MCF-7 cell line,0.5 to 0.6 µM
same,IC50,A2780 cell line,0.5 to 0.6 µM
"CC(C)(C)c1ccc(Cn2cc(COc3ccc4c(c3)CC[C@@H]3[C@@H]4CC[C@@]4(C)C(=O)CC[C@@H]34)nn2)cc1 [Compound 4b, 3-[{1-(4-tert-butylbenzyl)-1H-1,2,3-triazol-4-yl}methoxy]-13α-estra-1,3,5(10)-trien-17-one]",influence on the growth of the tested cell lines,tested cell lines,did not have marked influence on the growth
C[C@@]12CC[C@@H]3c4cc(Br)c(O)cc4CC[C@H]3[C@@H]1CCC2=O [Compound 5],IC50,[4],~1 µM
C[C@@]12CC[C@@H]3c4ccc(O)c(Br)c4CC[C@H]3[C@@H]1CCC2=O [Compound 6],IC50,[4],~1 µM
same,STS inhibition,"steroid sulfatase, STS",dual STS and 17β-HSD1 inhibition
CCOP(=O)(OCC)c1cc2c(cc1O)CC[C@@H]1[C@@H]2CC[C@@]2(C)C(=O)CC[C@@H]12 [Compound 7],IC50,[4],1 to 2 µM
same,IC50,OATP2B1,1 to 2 µM
CCOP(=O)(OCC)c1cc2c(cc1OCc1ccccc1)CC[C@@H]1[C@@H]2CC[C@@]2(C)C(=O)CC[C@@H]12 [Compound 8],IC50,OATP2B1,0.2 µM
"C[C@@]12CC[C@@H]3c4ccc(OCc5cn(Cc6ccccc6)nn5)c(Br)c4CC[C@H]3[C@@H]1CCC2=O [Compound 12a, 3-[{1-benzyl-1H-1,2,3-triazol-4-yl}methoxy]-4-bromo-13α-estra-1,3,5(10)-trien-17-one]",melting point,,188 to 190 °C
same,maximum rate of tubulin polymerisation (Vmax),tubulin [5]; 125 µM test compound,increased
same,maximum rate of tubulin polymerisation (Vmax),tubulin [5]; 250 µM test compound,increased by our test compound which was significant
same,inhibition at 10 µM,"MCF-7 cells; MCF-7, 10 µM, 72 h, read-out: Inhibition (%) ± SEM",42 ± 0.97%
same,inhibition at 30 µM,"MCF-7 cells; MCF-7, 30 µM, 72 h, read-out: Inhibition (%) ± SEM",52.5 ± 0.94%
same,IC50,"MCF-7 cells; MCF-7, 72 h, read-out: calculated IC50",12.7 µM
same,inhibition at 10 µM,"A2780 cells; A2780, 10 µM, 72 h, read-out: Inhibition (%) ± SEM",93.16 ± 0.47%
same,inhibition at 30 µM,"A2780 cells; A2780, 30 µM, 72 h, read-out: Inhibition (%) ± SEM",95.43 ± 0.42%
same,IC50,"A2780 cells; A2780, 72 h, read-out: calculated IC50",0.55 µM
same,inhibition at 10 µM,"[6]; NIH3T3, NIH/3T3, 10 µM, MTT, read-out: inhibition of cell growth",28.7 ± 1.26%
same,inhibition at 30 µM,"[6]; NIH3T3, NIH/3T3, 30 µM, MTT, read-out: inhibition of cell growth",37.9 ± 0.75%
same,IC50,"[6]; NIH3T3, NIH/3T3, MTT",> 30 µM
same,inhibition at 10 µM,"MDA-MB-231 cells; MDA-MB-231, 10 µM, 72 h, read-out: Inhibition (%) ± SEM",52.9 ± 1.32%
same,inhibition at 30 µM,"MDA-MB-231 cells; MDA-MB-231, 30 µM, 72 h, read-out: Inhibition (%) ± SEM",53.8 ± 2.43%
same,IC50,"MDA-MB-231 cells; MDA-MB-231, 72 h, read-out: calculated IC50",8.8 µM
